Data published in patent US20080293746A1 (priority 2007, published 2008).

What was measured:
clinical = conditions: human, in vivo, po
[1] = human, in vivo, po
[2] = Free plasma concentrations in the rat CCI studies; conditions: Sprague Dawley; for concentration at 2.5 h: in vivo
Text: It is important to ascertain whether any concluded synergy observed in animals or man is due solely to pharmacokinetic interactions.

[3] = system: CCI-induced static allodynia; test: Chronic constriction injury (CCI) rat model of neuropathic pain, assessment of static allodynia (von Frey hairs, paw withdrawal threshold); assay type: in vivo
[4] = oral dosing, CCI-induced static allodynia, rat (FIG. 1)

SMILES: CCCc1nn(C)c2c(=O)[nH]c(-c3cc(S(=O)(=O)N4CCN(C)CC4)ccc3OCC)nc12 [sildenafil, 5-[2-ethoxy-5-(4-methyl-1-piperazinyl-sulphonyl)phenyl]-1-methyl-3-n-propyl-1,6-dihydro-7H-pyrazolo[4,3-d]pyrimidin-7-one]
- half-life (clinical): 240 min
- steady state peak to trough ratio of plasma concentration time profile [1]: ~4 fold

SMILES: CC(C)C[C@H](CN)CC(=O)O [pregabalin, (S)-(+)-4-amino-3-(2-methylpropyl)butanoic acid]
- concentration at 2.5 h ([2]; 3 mg/kg): 17.8 µM
- concentration at 2.5 h ([2]; 20 mg/kg): 89.8 µM
- dose at which a full effect is achieved [3, 4]: 20 mg/kg
- minimum effective dose (MED) [3, 4]: 3 mg/kg
- effect on static allodynia endpoints ([3]; pregabalin alone 10 mg/kg, 2 hours after dosing (FIG. 3)): partially reversed

SMILES: CCOCCn1nc(C(=O)NS(C)(=O)=O)c2nc(N(C)CC)nc(Nc3cc(C)ccn3)c21
- concentration at 1.3 h ([2]; plasma, oral, 1 mg/kg): ≤ 10.2 nM
- concentration at 4.3 h ([2]; plasma, oral, 1 mg/kg): ≤ 16.1 nM
- effect on any allodynia endpoint ([3]; compound alone, oral dosing at 0.1 to 1 mg/kg (FIG. 2)): no effect observed
- half-life (clinical): 600 to 900 min
